How the values were obtained:
BlCel5B [1] = target: T1, BlCel5B (Bacillus licheniformis, UniProt Q65JI7); test: MALDI/TOF-MS product profile; format: biochemical; details: 1.0 mM cellopentaose, 10 mM ammonium bicarbonate pH 7.0, 50 C, 90 min
T1 construct: gene celC; full-length trimodular enzyme (CD, Ig-like, CBM46) without signal peptide (nucleotides 1-81 removed; gene end nt 1683); E. coli Rosetta2 (DE3), pETTRXA-1a/LIC; His6 tag cut by TEV; monomer

BlCel5B [2] = target: T1, BlCel5B; test: X-ray crystal structure ([…] A) after soaking with cellopentaose; format: binding; details: crystal soaked with five times molar excess of cellopentaose for 24 h; cellotetraose from cleavage in the crystal; subsites -1 to -3 of the catalytic domain

T1 sequence (Q65JI7 entry or part of it): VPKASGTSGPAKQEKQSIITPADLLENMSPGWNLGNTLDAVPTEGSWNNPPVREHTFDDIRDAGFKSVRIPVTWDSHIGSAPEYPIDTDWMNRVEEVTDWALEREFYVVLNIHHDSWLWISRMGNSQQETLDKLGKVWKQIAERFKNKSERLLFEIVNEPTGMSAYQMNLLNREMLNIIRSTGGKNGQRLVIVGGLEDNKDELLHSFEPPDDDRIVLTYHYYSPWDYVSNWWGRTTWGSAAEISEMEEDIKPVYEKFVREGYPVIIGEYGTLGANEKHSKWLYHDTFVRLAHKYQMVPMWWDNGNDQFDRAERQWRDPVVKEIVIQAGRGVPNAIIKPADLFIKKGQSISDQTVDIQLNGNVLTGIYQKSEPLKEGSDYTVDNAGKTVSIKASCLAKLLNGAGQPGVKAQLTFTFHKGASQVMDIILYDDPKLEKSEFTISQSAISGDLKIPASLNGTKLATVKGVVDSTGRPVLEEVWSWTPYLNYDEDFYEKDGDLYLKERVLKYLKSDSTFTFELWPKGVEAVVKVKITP

**Q.** `OC[C@H]1O[C@@H](O[C@H]2[C@H](O)[C@@H](O)[C@H](O[C@H]3[C@H](O)[C@@H](O)[C@H](O[C@H]4[C@H](O)[C@@H](O)[C@H](O[C@H]5[C@H](O)[C@@H](O)C(O)O[C@@H]5CO)O[C@@H]4CO)O[C@@H]3CO)O[C@@H]2CO)[C@H](O)[C@@H](O)[C@@H]1O` (some centres unmarked) [C5, cellopentaose] was tested. Which MALDI/TOF-MS product profile (BlCel5B [1]) did it give?
**A.** The MALDI/TOF-MS product profile was “ability of BlCel5B to cleave C5 into glucose and C4 molecules in solution was demonstrated”.

**Q.** With `OC[C@H]1O[C@@H](O[C@H]2[C@H](O)[C@@H](O)[C@H](O[C@H]3[C@H](O)[C@@H](O)[C@H](O[C@H]4[C@H](O)[C@@H](O)C(O)O[C@@H]4CO)O[C@@H]3CO)O[C@@H]2CO)[C@H](O)[C@@H](O)[C@@H]1O` (some centres unmarked) [C4, cellotetraose] as the compound, how does the “X-ray crystal structure (1.75 A) after soaking with cellopentaose” value (BlCel5B [2]) read?
**A.** Its value is “Electron density maps clearly reveal the presence of a cellotetraose (C4)”.

— paper PMC4817029, “Molecular characterization of a family 5 glycoside hydrolase suggests an induced-fit enzymatic mechanism” (Scientific Reports, 2016)
